Legend:
RKO = experiment: Antiproliferative activity against human RKO cells after 5 days by MTT assay; format: functional, cell-based; details: 120 h
MDA-MB-435 = experiment: Antiproliferative activity against human MDA-MB-435 cells after 5 days by MTT assay; format: functional, cell-based; details: MDA-MB-435, 120 h
[1] = biological target: Cyclin-dependent kinase 2/cyclin E1 (Homo sapiens, UniProt P24941); experiment: Inhibition of human CDK2/CyclinE expressed in baculovirus insect cell system using Rb as substrate after 30 mins by scintillation counting
[2] = Cell cycle arrest in human 1043SK cells assessed as accumulation at G1 phase measuring reduction of BrdU incorporation of into cellular DNA by ELISA; format: functional, cell-based

Row | SMILES | IC50 (MDA-MB-435) | IC50 [1] | IC50 [2] | IC50 (RKO)
1 | COc1cc[nH]c1/C=C1\C(=O)Nc2ccc([N+](=O)[O-])c(N3CC[C@H](O)C3)c21 | 104 nM | 5 nM |  | 37 nM
2 | COc1ccc2c(c1)/C(=C/c1[nH]ccc1OC)C(=O)N2 | 8080 nM | 209 nM |  | 3860 nM
3 | COc1cc[nH]c1/C=C1\C(=O)Nc2ccc([N+](=O)[O-])c(N3CCC(N)CC3)c21 | < 10 nM | 5 nM |  | < 10 nM
4 | COc1cc[nH]c1/C=C1\C(=O)Nc2ccc([N+](=O)[O-])c(N[C@H]3CC[C@H](O)C3)c21 (racemic) | 1000 nM | 5 nM |  | 339 nM
5 | COc1cc[nH]c1/C=C1\C(=O)Nc2ccc([N+](=O)[O-])cc21 | 7460 nM | 39 nM |  | 692 nM
6 | COc1cc[nH]c1/C=C1\C(=O)Nc2ccc([N+](=O)[O-])c(N[C@H]3CC[C@H](N)C3)c21 (racemic) | 61 nM | 5 nM |  | < 15 nM
7 | COc1cc[nH]c1/C=C1\C(=O)Nc2ccc([N+](=O)[O-])c(NC3CCNCC3)c21 | 139 nM | 5 nM |  | 24 nM
8 | COc1cc[nH]c1/C=C1\C(=O)Nc2ccccc21 |  | 5360 nM |  | 
9 | COc1cc[nH]c1/C=C1\C(=O)Nc2ccc([N+](=O)[O-])c(N[C@H]3CC[C@H](O)CC3)c21 | 8550 nM | 6 nM |  | 8040 nM
10 | COc1cc[nH]c1/C=C1\C(=O)Nc2ccc([N+](=O)[O-])c(-n3ccnc3)c21 | > 30000 nM | 1750 nM |  | 3920 nM
11 | COc1cc[nH]c1/C=C1\C(=O)Nc2ccc([N+](=O)[O-])c(N3CCCC(C(N)=O)C3)c21 (centres undefined) | 623 nM | 6 nM |  | 192 nM
12 | COc1cc[nH]c1/C=C1\C(=O)Nc2ccc([N+](=O)[O-])c(N3CCCC(O)C3)c21 (centres undefined) | 250 nM | 2 nM |  | 105 nM
13 | COc1cc[nH]c1/C=C1\C(=O)Nc2ccc([N+](=O)[O-])c(N3CC[C@@H](O)C3)c21 | 88 nM | 3 nM | 830 nM | 32 nM
14 | COc1cc[nH]c1/C=C1\C(=O)Nc2ccc([N+](=O)[O-])c(N3CC[C@@H](NC=O)C3)c21 | 33 nM | 3 nM |  | 32 nM

The remaining compounds from weak to strong by IC50 [1], led by results:

Row | IC50 (MDA-MB-435) | IC50 [1] | IC50 [2] | SMILES | IC50 (RKO)
15 | > 30000 nM | 847 nM |  | COc1cc[nH]c1/C=C1\C(=O)Nc2ccc(F)cc21 | 11900 nM
16 | 1270 nM | 28 nM |  | COc1cc[nH]c1/C=C1\C(=O)Nc2ccc([N+](=O)[O-])c(N3CCNC(C(N)=O)C3)c21 (centres undefined) | 449 nM
17 | 163 nM | 5 nM |  | COc1cc[nH]c1/C=C1\C(=O)Nc2ccc([N+](=O)[O-])c(N3CC[C@H](C(N)=O)C3)c21 | 50 nM
18 | 46 nM | 4 nM |  | COc1cc[nH]c1/C=C1\C(=O)Nc2ccc([N+](=O)[O-])c(N3CCC(O)CC3)c21 | < 10 nM
19 | < 10 nM | 3 nM |  | COc1cc[nH]c1/C=C1\C(=O)Nc2ccc([N+](=O)[O-])c(N3CC[C@@H](N)C3)c21 | < 10 nM
20 | 441 nM | 2 nM |  | COc1cc[nH]c1/C=C1\C(=O)Nc2ccc([N+](=O)[O-])c(N3CCCC(CO)C3)c21 (centres undefined) | 124 nM
